In patent US20150175599A1, “FAAH Inhibitors” (Ironwood Pharmaceuticals, Inc., priority 2010, published 2015):
pIC50: −log10 of the molar value.

Molecular target: T1, FAAH (Rattus norvegicus, UniProt P97612)
T1 construct: For the assay of FAAH activity in rat brain membrane (RBM) homogenates; tissue Charles River (animals); host or cells: rat whole brain, membrane fraction
T1 sequence (P97612 1-579): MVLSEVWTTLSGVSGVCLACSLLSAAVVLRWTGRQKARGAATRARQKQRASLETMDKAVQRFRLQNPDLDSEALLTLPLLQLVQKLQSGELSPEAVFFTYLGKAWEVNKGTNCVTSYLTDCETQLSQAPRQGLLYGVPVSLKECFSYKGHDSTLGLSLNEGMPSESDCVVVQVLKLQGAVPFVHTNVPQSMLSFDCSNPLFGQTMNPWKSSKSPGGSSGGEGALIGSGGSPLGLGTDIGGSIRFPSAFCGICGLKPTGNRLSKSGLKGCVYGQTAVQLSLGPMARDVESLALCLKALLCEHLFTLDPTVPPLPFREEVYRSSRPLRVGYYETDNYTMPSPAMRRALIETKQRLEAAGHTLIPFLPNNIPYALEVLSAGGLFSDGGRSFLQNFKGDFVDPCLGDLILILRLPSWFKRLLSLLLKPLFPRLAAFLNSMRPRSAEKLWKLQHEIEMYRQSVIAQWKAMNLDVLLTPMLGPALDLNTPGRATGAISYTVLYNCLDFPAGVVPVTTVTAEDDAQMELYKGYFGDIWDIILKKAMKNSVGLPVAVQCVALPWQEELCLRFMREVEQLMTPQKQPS
Experiment: FAAH inhibition, rat brain membrane homogenate assay
Assay type: biochemical
Conditions: not given
Procedure, shortened: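 Membranes from female CD rat brain (Tris pH 7.4/EDTA/MgCl2 resuspension), 7 μg protein, incubated 10 min at 37 °C with [3H]anandamide plus […] unlabelled AEA, 1 mg/mL fatty acid-free BSA, Tris-HCl pH 6.5, 1 mM EDTA, 1% DMSO. [3H]ethanolamine separated by chloroform/methanol extraction or charcoal filtration, scintillation-counted; IC50 derived.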

Row | Compound | pIC50
1 | COc1cc(NC(=O)C(=O)c2c(C)n(Cc3ncc(F)cc3F)c3ccc(C)cc23)ccn1 [Compound 88, 2-(1-((3,5-difluoropyridin-2-yl)methyl)-2,5-dimethyl-1H-indol-3-yl)-N-(2-methoxypyridin-4-yl)-2-oxoacetamide] | > 7.00

Same assay, conditions: rat brain homogenate; average activity; read-out: Rat Brain Extract FAAH IC50

Row | Compound | pIC50
2 | Cc1c(C(=O)C(=O)Nc2cccc(Cl)c2)c2cc(O)ccc2n1Cc1ccc(Cl)cc1 [Compound 71, 2-(1-(4-chlorobenzyl)-5-hydroxy-2-methyl-1H-indol-3-yl)-N-(3-chlorophenyl)-2-oxoacetamide] | 6.00 to 7.00
3 | COc1cc(NC(=O)C(=O)c2c(C)n(Cc3ccc(Cl)cc3)c3cc(F)c(OC)cc23)ccn1 [Compound 72, 2-(1-(4-chlorobenzyl)-6-fluoro-5-methoxy-2-methyl-1H-indol-3-yl)-N-(2-methoxypyridin-4-yl)-2-oxoacetamide] | > 7.00
4 | COc1cc(NC(=O)C(=O)c2c(C)n(Cc3ccc(Cl)cc3)c3ccc(N)c(Cl)c23)ccn1 [Compound 73, 2-(5-amino-4-chloro-1-(4-chlorobenzyl)-2-methyl-1H-indol-3-yl)-N-(2-methoxypyridin-4-yl)-2-oxoacetamide] | 6.00 to 7.00
5 | COc1cc(NC(=O)C(=O)c2c(C)n(Cc3ccc(Cl)cc3)c3cc(C)c(OC)cc23)ccn1 [Compound 74, 2-(1-(4-chlorobenzyl)-5-methoxy-2,6-dimethyl-1H-indol-3-yl)-N-(2-methoxypyridin-4-yl)-2-oxoacetamide] | > 7.00
6 | COc1cc(NC(=O)C(=O)c2c(C)n(Cc3ccc(Cl)cn3)c3ncc(C)cc23)ccn1 [Compound 75, (1-((5-chloropyridin-2-yl)methyl)-2,5-dimethyl-1H-pyrrolo[2,3-b]pyridin-3-yl)-N-(2-methoxypyridin-4-yl)-2-oxoacetamide] | > 7.00
7 | COc1cc(NC(=O)C(=O)c2c(C)n(Cc3ccc(Cl)cc3)c3ncc(C)cc23)ccn1 [Compound 76, 2-(1-(4-chlorobenzyl)-2,5-dimethyl-1H-pyrrolo[2,3-b]pyridin-3-yl)-N-(2-methoxypyridin-4-yl)-2-oxoacetamide] | > 7.00
8 | COc1ccc2c(c1)c(C(=O)C(=O)Nc1ccnc(OC)c1)c(C)n2Cc1ccccn1 [Compound 77, 2-(5-methoxy-2-methyl-1-(pyridin-2-ylmethyl)-1H-indol-3-yl)-N-(2-methoxypyridin-4-yl)-2-oxoacetamide] | > 7.00
9 | COc1cc(NC(=O)C(=O)c2c(C)n(Cc3ccc(Cl)cn3)c3cc(C)c(OC)cc23)ccn1 [Compound 95, 2-(1-((5-chloropyridin-2-yl)methyl)-5-methoxy-2,6-dimethyl-1H-indol-3-yl)-N-(2-methoxypyridin-4-yl)-2-oxoacetamide] | > 7.00
10 | COc1ccc(Cn2c(C)c(C(=O)C(=O)Nc3ccnc(OC)c3)c3cc(OC)c(C)cc32)nc1 [Compound 96, 2-(5-methoxy-1-((5-methoxypyridin-2-yl)methyl)-2,6-dimethyl-1H-indol-3-yl)-N-(2-methoxypyridin-4-yl)-2-oxoacetamide] | > 7.00
11 | COc1cc(NC(=O)C(=O)c2c(C)n(Cc3ncc(Cl)cc3F)c3cc(Cl)c(OC)cc23)ccn1 [Compound 97, 2-(6-chloro-1-((5-chloro-3-fluoropyridin-2-yl)methyl)-5-methoxy-2-methyl-1H-indol-3-yl)-N-(2-methoxypyridin-4-yl)-2-oxoacetamide] | > 7.00
12 | COc1ccc(Cn2c(C)c(C(=O)C(=O)Nc3ccnc(OC)c3)c3cc(OC)c(Cl)cc32)nc1 [Compound 98, 2-(6-chloro-5-methoxy-1-((5-methoxypyridin-2-yl)methyl)-2-methyl-1H-indol-3-yl)-N-(2-methoxypyridin-4-yl)-2-oxoacetamide] | > 7.00
13 | COc1cc(NC(=O)C(=O)c2c(C)n(Cc3ncc(Cl)cc3F)c3cc(F)c(OC)cc23)ccn1 [Compound 99, 2-(1-((5-chloro-3-fluoropyridin-2-yl)methyl)-6-fluoro-5-methoxy-2-methyl-1H-indol-3-yl)-N-(2-methoxypyridin-4-yl)-2-oxoacetamide] | > 7.00
14 | COc1ccc2c(c1)c(C(=O)C(=O)Nc1ccnc(OC)c1)c(C)n2Cc1ncc(Cl)cc1OC [Compound 100, 2-(1-((5-chloro-3-methoxypyridin-2-yl)methyl)-5-methoxy-2-methyl-1H-indol-3-yl)-N-(2-methoxypyridin-4-yl)-2-oxoacetamide] | > 7.00
15 | COc1cc(NC(=O)C(=O)c2c(C)n(Cc3ncc(F)cc3F)c3cc(F)c(OC)cc23)ccn1 [Compound 101, 2-(1-((3,5-difluoropyridin-2-yl)methyl)-6-fluoro-5-methoxy-2-methyl-1H-indol-3-yl)-N-(2-methoxypyridin-4-yl)-2-oxoacetamide] | > 7.00
